How the values were obtained:
[1] = test system: brown rats, Rattus norvegicus; assay: Laboratory arena with two trap boxes: behavioral responses of rats (first entry, time spent); assay type: in vivo
Source text: A laboratory experimental apparatus was constructed to test the behavioral responses of rats to the compositions described herein. The experimental design is depicted in FIG. 1 and includes a circular galvanized steel arena (200 cm×60 cm) illuminated from above by a 7.5-W red bulb (Halco Lighting Technologies, Norcross, Ga. 30071, USA) to facilitate observations of the position of the rat within the steel arena. Two metal trap boxes (3a, 3b) (each 25 cm×20 cm×12 cm; T. Eaton & Co. Inc., Twinsburg, Ohio 44087, USA) were placed in opposite quadrants of the arena (1) 10 cm from the wall to serve as harborage. Each box (3a, 3b) was fitted with a Petri dish (3 cm) containing a Whatman #1 filter paper disk (25 mm diam; Sigma-Aldrich Canada Co. Oakville, On L6H 6J8) treated with a randomly assigned treatment or control stimulus. Individual rats were released from a gated mesh and sheet metal box (2) (25 cm×15 cm×15 cm) positioned equidistant to each of the two metal trap boxes (3a, 3b).
For each experimental replicate, a single rat was removed from its “home” cage, and placed into the gated mesh- and sheet-metal container (2). After a 10-min acclimation period, the gate was raised, allowing the rat to leave the box (2) on its own accord and to explore the arena (1) and the trap boxes (3a, 3b).
A rat was classed a responder if it entered a trap box (3a, 3b). For each responding rat, two criteria were recorded and analyzed: 1) the trap box (3a, 3b) it entered first (“first entry”), and 2) the time it spent in the arena quadrants associated with a trap box (“time spent”). The latter data were obtained by recording the rat's position in any one of the four arena quadrants at each of 30 1-min intervals. Following each replicate, the arena and trap boxes were cleaned with a Percept™ disinfectant detergent (Virox Technologies Inc. Mississaugua ON L5N 5M4, Canada) and were wiped with a pet urine odor remover (Nature's Miracle®, Spectrum Brands Inc., Blacksburg, Va. 24060-6671, USA).
(§1) First-choice data and the time spent in a trap box quadrant were analyzed using a χ^2 test with Yates' correction for continuity (α=0.05) and the Student's t-test (α=0.05), respectively.
In Experiments 1 and 2, the laboratory experimental design of FIG. 1 was used to evaluate the responses of male and female rats to synthetic androstenone. For Experiments 1 and 2, the treatment stimulus consisted of filter paper sprayed with 2 ml of an aqueous microemulsion containing 4 μg of synthetic androstenone and a control stimulus which consisted of untreated filter paper. The treatment stimulus and control stimulus were placed in the trap boxes (3a, 3b). Experiment 1 tested the response of male rats and Experiment 2 tested the response of female rats.
In Experiments 3 and 4, the laboratory experimental design of FIG. 1 was used to evaluate the responses of male and female rats to synthetic progesterone and estrogen. For Experiments 3 and 4, the treatment stimulus consisted of filter paper impregnated with a 4-μg blend of the synthetic hormones progesterone and estrogen formulated in 50 μl of ether at a ratio of either 100:1 (Experiment 3) or 1000:1 (Experiment 4). The control stimulus in each of Experiments 3 and 4 consisted of filter paper impregnated with 50 μl of ether.
Experiment 14 used the laboratory experimental apparatus of FIG. 1 to test choices of female rats between a treatment stimulus consisting of filter paper treated with 150 ng of synthetic testosterone formulated in 50 μl of ether and a control stimulus consisting of filter paper treated with 50 μl of ether.

[2] = test system: house mice, Mus musculus; assay: Laboratory T-tube bioassay: behavioral responses of mice (first choice, time spent); assay type: in vivo; details: female mice
Source text: A laboratory experimental apparatus was constructed to test the behavioral responses of mice to the compositions described herein. The experimental design is depicted in FIG. 4 and includes three clear Plexiglas chambers: release chamber (1: 40 cm×20 cm×30 cm for placement of a mouse at the onset of a bioassay), and response chambers (3a and 3b: each 60 cm×30 cm×40 cm) interconnected by a Pyrex glass T-tube (2; stem: 65 cm long, side arms: 45 cm long, all 10 cm in diameter). Each response chamber housed a test stimulus in a Petri dish (4a, 4b; 3 cm diam.). For each replicate, a single mouse was deprived of food, but not water, for 4-6 h before being placed into chamber 1, which was illuminated by dim red light to facilitate observations of the mouse's position. The mouse was allowed to enter the stem of the T-tube (2) on its own accord in response to test stimuli, which were randomly assigned to response chamber 3a or 3b.
Both response chambers were fitted with a Petri dish (4a, 4b) containing a Whatman #1 filter paper disk (25 mm diam.) treated with a randomly assigned treatment stimulus or control stimulus. For each bioassay, a single mouse was tested and the following data were recorded: (1) the treatment or control chamber the mouse entered first with all four paws (“first-choice data”); and (2) the position of the mouse at each of 30 30-sec intervals after its first entry into the T-tube. Position data were then used to calculate the proportion of time a mouse spent in the treatment or control chamber (“time-spent data”).
Following each replicate, the chambers and T-tube were cleaned with a Percept® disinfectant detergent (Virox Technologies Inc. Mississaugua ON L5N 5M4, Canada) and wiped with 70% ethanol.
as §1
In Experiment 5, the laboratory experimental design of FIG. 4 was used to evaluate the responses of female mice to synthetic androstenone. For Experiment 5, the treatment stimulus consisted of filter paper treated with 4 μg of synthetic androstenone (see Experiments 1 and 2), and the control stimulus consisted of filter paper treated with the 50 μl of ether without androstenone.
In Experiment 6, the laboratory experimental design of FIG. 4 was used to evaluate the responses of male mice to blends of synthetic progesterone and estrogen. For Experiment 6, the treatment stimulus consisted of filter paper treated with a 4-μg blend of the synthetic hormones progesterone and estrogen formulated in 50 μl of ether at a ratio of 100:1 and a control stimulus which consisted of filter paper treated with 50 μl of ether.
In Experiments 9 to 11, the laboratory experimental design of FIG. 4 was used to evaluate the responses of male mice to synthetic progesterone and estrogen. For the Experiments, the treatment stimulus consisted of filter paper treated with a blend of the synthetic progesterone (50 ng) and estrogen (25 ng) (hereinafter “synthetic hormone blend”) (Experiment 9), progesterone alone (75 ng) (Experiment 10) or estrogen alone (75 ng) (Experiment 11) formulated in 50 μl ether. The control stimulus consisted of filter paper treated with 50 μl of ether for each of Experiments 9 to 11.
Experiment 12 used the laboratory experimental apparatus of FIG. 4 to test choices of female mice between filter paper treated with 75 ng of synthetic testosterone (the treatment stimulus) formulated in 50 μl of ether and control filter paper treated with 50 μl of ether. Experiment 13 was identical to Experiment 12 except that the treatment stimulus consisted of filter paper treated with 75 ng of synthetic androstenone.

[3] = Experiment 1, male rats, 4 μg synthetic androstenone
[4] = Experiment 2, female rats, 4 μg synthetic androstenone
[5] = Experiment 5, 4 μg synthetic androstenone
[6] = Experiment 13, 75 ng synthetic androstenone
[7] = Experiment 14, female rats, 150 ng synthetic testosterone
[8] = Experiment 12, 75 ng synthetic testosterone

SMILES	first entry into treatment trap box vs control trap box [1, 3]	time spent in quadrants associated with stimulus vs opposite control quadrants [1, 3]	attractive effect on male rats ([1]; Experiment 1, male rats, 4 μg synthetic androstenone on filter paper vs untreated filter paper)	first entry into treatment trap box vs control trap box [1, 4]	time spent in quadrants associated with treatment stimulus vs opposite control quadrants [1, 4]	attractive effect on female rats ([1]; Experiment 2, female rats, 4 μg synthetic androstenone on filter paper vs untreated filter paper)	first entry into baited response chamber vs control chamber [2, 5]	time spent in response chamber with stimulus vs control chamber [2, 5]	effect on female mice ([2]; Experiment 5, 4 μg synthetic androstenone vs 50 μl ether)	first entry into baited chamber vs control chamber [2, 6]	responses by female mice compared with testosterone [2, 6]	time spent in baited chamber vs control chamber [2, 6]	first entry into baited trap box vs control trap box [1, 7]	time spent in arena quadrant of baited trap box vs opposite control quadrant [1, 7]	attractant effect on female rats ([1]; Experiment 14, female rats, 150 ng synthetic testosterone in 50 μl ether vs ether)	first entry into baited chamber vs control chamber [2, 8]	preference in time spent for the treated chamber over control [2, 8]	time spent in baited chamber vs control chamber [2, 8]	effect on female mice ([2]; Experiment 12, 75 ng synthetic testosterone in 50 μl ether vs ether)
C[C@]12CCC(=O)C[C@@H]1CC[C@@H]1[C@@H]2CC[C@]2(C)C=CC[C@@H]12 [androstenone, 5α-androst-16-en-3-one]	as often as	significantly less time	no observed attractive effect	significantly more often	significantly more time	very attractive effect	as often as	significantly more time	positive effect	as often as	much weaker	slightly more time							
C[C@]12CC[C@H]3[C@@H](CCC4=CC(=O)CC[C@@]43C)[C@@H]1CC[C@@H]2O [testosterone, (8R,9S,10R,13S,14S,17S)-17-hydroxy-10,13-dimethyl-1,2,6,7,8,9,11,12,14,15,16,17-dodecahydrocyclopenta[a]phenanthren-3-one, reference compound]													significantly more often	significantly more time	very positive attractant effect	significantly more often	over threefold preference	significantly more time	very positive effect
